# Test system: ring stage parasites
# Assay: Parasite growth potency assay, 72 hours, LDH readout
# Format: cell-based
# Conditions: 72 h
# Summary of the method: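 Parasite growth was quantified by LDH assay after a −80 °C freeze-thaw. Before that, compound was incubated for 72 h at 37 °C under humidified gas with ring-stage cultures adjusted to 0.7% parasitemia and 2% haematocrit in serum- and albumax-supplemented RPMI-Hepes.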
row,Compound,EC50 [nM]
1,"CCC1(CC)CC(=O)N([C@H](c2ccc(OS(=O)(=O)F)cc2)c2cccc(C(=O)N[C@H]3CCOc4ccccc43)c2)C(=N)N1 [Example 150, [1-[[3-[[(4S)-chroman-4-yl]carbamoyl]phenyl]-(4-fluorosulfonyloxyphenyl)methyl]-4,4-diethyl-6-oxo-hexahydropyrimidin-2-ylidene]ammonium; 2,2,2-trifluoroacetate]",2.8

# Same assay, conditions: 72 h, parasite growth measured by LDH assay after 72 hours at 37° C.; 0.7% rings, 2% haematocrit; read-out: EC50
row,Compound,EC50 [nM]
1,"CCC1(CC)CC(=O)N([C@H](CCOC)c2cccc(C(=O)NC3c4ccccc4OC(C(F)(F)F)C3O)c2)C(=N)N1 (stereo partly drawn) [Example 151, [4,4-diethyl-1-[(1R)-1-[3-[[3-hydroxy-2-(trifluoromethyl)chroman-4-yl]carbamoyl]phenyl]-3-methoxy-propyl]-6-oxo-hexahydropyrimidin-2-ylidene]ammonium; 2,2,2-trifluoroacetate]",1.1
2,"CCC1(CC)CC(=O)N([C@H](CCOC)c2cccc(C(=O)N[C@@H]3c4ccccc4OC[C@@H]3O)c2)C(=N)N1 [Example 152A, [4,4-diethyl-1-[(1R)-1-[3-[[(3R,4R)-3-hydroxychroman-4-yl]carbamoyl]phenyl]-3-methoxy-propyl]-6-oxo-hexahydropyrimidin-2-ylidene]ammonium; 2,2,2-trifluoroacetate]",8.8
3,"CCC1(CC)CC(=O)N([C@H](CCOC)c2cccc(C(=O)N[C@@H]3c4ccccc4OC[C@H]3O)c2)C(=N)N1 [Example 152B, [4,4-diethyl-1-[(1R)-1-[3-[[(3S,4R)-3-hydroxychroman-4-yl]carbamoyl]phenyl]-3-methoxy-propyl]-6-oxo-hexahydropyrimidin-2-ylidene]ammonium; 2,2,2-trifluoroacetate]",2
4,"CCC1(CC)CC(=O)N([C@H](CCS(C)(=O)=O)c2cccc(C(=O)N[C@@H]3c4ccccc4C[C@H]3O)c2)C(=N)N1 [Example 153, [4,4-diethyl-1-[1-[3-[[(1R,2R)-2-hydroxyindan-1-yl]carbamoyl]phenyl]-3-methylsulfonyl-propyl]-6-oxo-hexahydropyrimidin-2-ylidene]ammonium; 2,2,2-trifluoroacetate]",77.8
5,"CCC1(CC)CC(=O)N([C@H](CCS(C)(=O)=O)c2cccc(C(=O)N[C@@H]3c4ccccc4C[C@@]3(C)O)c2)C(=N)N1 [Example 154A, 3-[1-(4,4-diethyl-2-imino-6-oxo-hexahydropyrimidin-1-yl)-3-methylsulfonyl-propyl]-N-[(1R,2R)-2-hydroxy-2-methyl-indan-1-yl]benzamide]",54
6,"CCC1(CC)CC(=O)N([C@H](CCS(C)(=O)=O)c2cccc(C(=O)N[C@@H]3c4ccccc4OC(C)(C)[C@H]3O)c2)C(=N)N1 [Example 155, [4,4-diethyl-1-[1-[3-[[(3S,4R)-3-hydroxy-2,2-dimethyl-chroman-4-yl]carbamoyl]phenyl]-3-methylsulfonyl-propyl]-6-oxo-hexahydropyrimidin-2-ylidene]ammonium; 2,2,2-trifluoroacetate]",17.2
7,"CCC1(CC)CC(=O)N([C@H](CCS(C)(=O)=O)c2cccc(C(=O)N[C@H]3CC(C)(C)Oc4ccccc43)c2)C(=N)N1 [Example 156, [1-[1-[3-[[(4S)-2,2-dimethylchroman-4-yl]carbamoyl]phenyl]-3-methylsulfonyl-propyl]-4,4-diethyl-6-oxo-hexahydropyrimidin-2-ylidene]ammonium; 2,2,2-trifluoroacetate]",5.7
8,"CCC1(CC)CC(=O)N([C@H](CCOC(F)F)c2cccc(C(=O)N[C@@H]3c4ccccc4C[C@H]3O)c2)C(=N)N1 [Example 157, [1-[3-(difluoromethoxy)-1-[3-[[(1R,2R)-2-hydroxyindan-1-yl]carbamoyl]phenyl]propyl]-4,4-diethyl-6-oxo-hexahydropyrimidin-2-ylidene]ammonium; 2,2,2-trifluoroacetate]",1.8
9,"CCC1(CC)CC(=O)N([C@H](CCOC(F)F)c2cccc(C(=O)N[C@@H]3c4ccccc4C[C@@]3(C)O)c2)C(=N)N1 [Example 158A, 3-[1-(4,4-diethyl-2-imino-6-oxo-hexahydropyrimidin-1-yl)-3-(difluoromethoxy)propyl]-N-[(1R,2R)-2-hydroxy-2-methyl-indan-1-yl]benzamide]",2.6
10,"CCC1(CC)CC(=O)N([C@H](CCOC(F)F)c2cccc(C(=O)N[C@@H]3c4ccccc4OC(C)(C)[C@H]3O)c2)C(=N)N1 [Example 159, [1-[3-(difluoromethoxy)-1-[3-[[(3S,4R)-3-hydroxy-2,2-dimethyl-chroman-4-yl]carbamoyl]phenyl]propyl]-4,4-diethyl-6-oxo-hexahydropyrimidin-2-ylidene]ammonium; 2,2,2-trifluoroacetate]",0.8
11,"CCC1(CC)CC(=O)N([C@H](CCOC(F)F)c2cccc(C(=O)N[C@H]3CC(C)(C)Oc4ccccc43)c2)C(=N)N1 [Example 160, [1-[3-(difluoromethoxy)-1-[3-[[(4S)-2,2-dimethylchroman-4-yl]carbamoyl]phenyl]propyl]-4,4-diethyl-6-oxo-hexahydropyrimidin-2-ylidene]ammonium; 2,2,2-trifluoroacetate]",0.5
12,"CCC1(CC)CC(=O)N([C@H](CCS(C)(=O)=O)c2cccc(C(=O)N[C@H]3CCOc4ccccc43)c2)C(=N)N1 [Example 161, [1-[1-[3-[[(4S)-chroman-4-yl]carbamoyl]phenyl]-3-methylsulfonyl-propyl]-4,4-diethyl-6-oxo-hexahydropyrimidin-2-ylidene]ammonium; 2,2,2-trifluoroacetate]",23
13,"CCC1(CC)CC(=O)N([C@H](CCS(C)(=O)=O)c2cccc(C(=O)N[C@H]3C[C@H](C(F)(F)F)Oc4ccccc43)c2)C(=N)N1 [Example 162, [4,4-diethyl-1-[3-methylsulfonyl-1-[3-[[(2R,4S)-2-(trifluoromethyl)chroman-4-yl]carbamoyl]phenyl]propyl]-6-oxo-hexahydropyrimidin-2-ylidene]ammonium; 2,2,2-trifluoroacetate]",5.2
14,"CCC[C@H](c1cccc(C(=O)N[C@@H]2c3ccccc3OC[C@@]2(C)O)c1)N1C(=N)NC(CC)(CC)CC1=O [Example 163A, 3-[(1R)-1-(4,4-diethyl-2-imino-6-oxo-hexahydropyrimidin-1-yl)butyl]-N-[(3S,4R)-3-hydroxy-3-methyl-chroman-4-yl]benzamide]",0.3
15,"CCC1(CC)CC(=O)N([C@H](CCOC(F)F)c2cccc(C(=O)N[C@H]3CCOc4ccccc43)c2)C(=N)N1 [Example 164, [1-[1-[3-[[(4S)-chroman-4-yl]carbamoyl]phenyl]-3-(difluoromethoxy)propyl]-4,4-diethyl-6-oxo-hexahydropyrimidin-2-ylidene]ammonium; 2,2,2-trifluoroacetate]",0.9
16,"CCC1(CC)CC(=O)N([C@H](CCOC)c2cccc(C(=O)N[C@H]3c4cc(F)ccc4OC(C)(C)[C@@H]3O)c2)C(=N)N1 [Example 165A, [4,4-diethyl-1-[(1R)-1-[3-[[(3R,4S)-6-fluoro-3-hydroxy-2,2-dimethyl-chroman-4-yl]carbamoyl]phenyl]-3-methoxy-propyl]-6-oxo-hexahydropyrimidin-2-ylidene]ammonium; 2,2,2-trifluoroacetate]",41.4
17,"CCC1(CC)CC(=O)N([C@H](CCOC)c2cccc(C(=O)N[C@@H]3c4cc(F)ccc4OC(C)(C)[C@H]3O)c2)C(=N)N1 [Example 165B, [4,4-diethyl-1-[(1R)-1-[3-[[(3S,4R)-6-fluoro-3-hydroxy-2,2-dimethyl-chroman-4-yl]carbamoyl]phenyl]-3-methoxy-propyl]-6-oxo-hexahydropyrimidin-2-ylidene]ammonium; 2,2,2-trifluoroacetate]",0.4
18,"COCC[C@H](c1cccc(C(=O)N[C@@H]2c3ccccc3C3(CC3)[C@H]2O)c1)N1C(=N)NC(C)(C)CC1=O [Example 167, [1-[(1R)-1-[3-[(2′-hydroxyspiro[cyclopropane-1,3′-indane]-1′-yl)carbamoyl]phenyl]-3-methoxy-propyl]-4,4-dimethyl-6-oxo-hexahydropyrimidin-2-ylidene]ammonium; 2,2,2-trifluoroacetate]",3.1

# Same assay, conditions: parasite growth measured by LDH assay after 72 hours at 37° C.; 0.7% rings, 2% haematocrit; read-out: EC50
row,Compound,EC50 [nM]
1,"CCC1(CC)CC(=O)N([C@H](CCS(C)(=O)=O)c2cccc(C(=O)N[C@@H]3c4ccccc4C[C@]3(C)O)c2)C(=N)N1 [Example 154B, 3-[1-(4,4-diethyl-2-imino-6-oxo-hexahydropyrimidin-1-yl)-3-methylsulfonyl-propyl]-N-[(1R,2S)-2-hydroxy-2-methyl-indan-1-yl]benzamide]",69
2,"CCC1(CC)CC(=O)N([C@H](CCOC(F)F)c2cccc(C(=O)N[C@@H]3c4ccccc4C[C@]3(C)O)c2)C(=N)N1 [Example 158B, 3-[1-(4,4-diethyl-2-imino-6-oxo-hexahydropyrimidin-1-yl)-3-(difluoromethoxy)propyl]-N-[(1R,2S)-2-hydroxy-2-methyl-indan-1-yl]benzamide]",2.4
3,"CCC[C@H](c1cccc(C(=O)N[C@@H]2c3ccccc3OC[C@]2(C)O)c1)N1C(=N)NC(CC)(CC)CC1=O [Example 163B, 3-[(1R)-1-(4,4-diethyl-2-imino-6-oxo-hexahydropyrimidin-1-yl)butyl]-N-[(3R,4R)-3-hydroxy-3-methyl-chroman-4-yl]benzamide]",0.4
4,"COCC[C@H](c1cccc(C(=O)N[C@@H]2c3ccccc3C[C@@]2(C)O)c1)N1C(=N)NC(C)(C)CC1=O [Example 166A, N-[(1R,2R)-2-hydroxy-2-methyl-indan-1-yl]-3-[(1R)-1-(2-imino-4,4-dimethyl-6-oxo-hexahydropyrimidin-1-yl)-3-methoxy-propyl]benzamide]",52.1
5,"COCC[C@H](c1cccc(C(=O)N[C@@H]2c3ccccc3C[C@]2(C)O)c1)N1C(=N)NC(C)(C)CC1=O [Example 166B, N-[(1R,2S)-2-hydroxy-2-methyl-indan-1-yl]-3-[(1R)-1-(2-imino-4,4-dimethyl-6-oxo-hexahydropyrimidin-1-yl)-3-methoxy-propyl]benzamide]",17.6

# Reference: US12629374B2, “Antimalarial agents” (Merck Sharp & Dohme LLC, priority 2020, dated 2026)
